Results from a melting point compilation (Tetko et al.; mined from patent text by program, amines drawn as free bases though some values may be those of a salt).

melting point | Compound
159 to 163 °C | Nc1cc(Cl)nc(SC/C=C/C(=O)N2CCCCC2)n1
214 to 218 °C | C[C@]1(COc2ccc(N3CCC(OCc4ccc(OC(F)(F)F)cc4)CC3)cc2)Cn2cc([N+](=O)[O-])nc2O1
142 to 144 °C | c1ccc(C2=NC(c3ccccc3)C3=C(N2)c2nc(-c4ccccc4)cc(-c4ccccc4)c2CC3)cc1 (stereo not given)
159 to 166 °C | CCCC(c1cc(C(=O)Nc2ccccc2)ccc1OCc1ccc(Br)cc1)n1ccnc1 (stereo not given)
80 to 83 °C | COC(=O)c1ccc(CCN(C)CCCC(C#N)(C(=O)OC)c2ccc(OC)c(OC)c2)cc1 (stereo not given)
72 to 74 °C | C#CCN1C(=O)COc2cc(F)c(NC(=O)C3CCCN3C(=O)OCc3ccccc3)cc21 (stereo not given)
278 °C | NC(=O)Nc1cccc2c1C(=O)c1c-2n[nH]c1-c1ccco1
101 to 103 °C | O=[N+]([O-])c1cnc2ccc(SC(F)F)cc2c1-c1ccccc1
92 to 95 °C | COc1cc(Nc2nccc(-c3cccc(NCCCO)c3)n2)cc(OC)c1OC
177 to 178 °C | CCOC(=O)NC(=O)CC(=O)NC(=O)OCC
99 to 100 °C | O=C1CCCN1C(=O)Oc1ccc(Cl)cc1
215 °C | COC(=O)c1cccc(NC(=O)NCC(=O)O)c1
146 to 147 °C | NC1=NN(c2cccc(F)c2)CC1
226 to 227 °C | O=C(N[C@@H](Cc1ccccc1)C(=O)NCCCNC(=O)[C@H](Cc1ccccc1)NC(=O)OCc1ccccc1)OCc1ccccc1
147 to 148 °C | O=C(O)CCc1cn(Cc2ccc(OCc3ccc4ccccc4n3)cc2)nc1-c1ccccc1
115 to 116 °C | NCc1c(Nc2ccccc2)cccc1-c1ccccc1
62 to 63 °C | COc1cc(-c2ncc(C(F)(F)F)cc2OC)ccc1Cl
136 to 139 °C | NCc1cccc2nnsc12
153 to 155 °C | CC(C)CNC(=O)c1ccc(C(=O)N2CCC[C@@H]3CCCC[C@H]32)cc1N (relative stereo)
58 to 59 °C | O=[N+]([O-])c1ccccc1Nc1ccccc1F
90 to 92 °C | CCCCCCCCCCCCCCCCCCCCCCSC[C@H](NC(=O)CCCCCCCCCCCCCCC)C(=O)O
127 °C | Cc1oc(-c2ccccc2)nc1CCOc1cccc(-c2cccc(OC3(C(=O)O)CCC3)c2)c1

melting point | Compound
154 to 156 °C | CS(=O)c1ccccc1-c1nc2ncccc2o1 (stereo not given)
188 to 189 °C | O=[N+]([O-])c1cn2c(n1)O[C@@H](COc1ccc(N3CCC(OCc4ccc(OC(F)(F)F)cc4)CC3)cc1)C2
< 80 °C | CN1COc2cc(CCCN3CCOCC3)cnc21
200 to 202 °C | CC(C)c1nc(-c2cccnc2)c[nH]c1=O
156 to 159 °C | CCOC(=O)C(C#N)=CNc1ncc(C)cc1C
235 to 237 °C | COc1nc2ccccc2nc1NC(=S)N1CCN(c2ccc(C(C)=O)cc2)CC1
45 to 47 °C | CCCCCCCCc1ccc(C(=O)C2CC2C(=O)O)cc1 (stereo not given)
122 to 123 °C | CC(C)(C)c1cc(CS[C@@H]2CCCCCC[C@H]2SCc2cc(C(C)(C)C)cc(C(C)(C)C)c2O)c(O)c(C(C)(C)C)c1 (relative stereo)
111 to 113 °C | CC1(Br)CN(C2SCN(c3cccc(OC(F)(F)F)c3)C2=O)C1=O (stereo not given)
> 300 °C | CCCn1cc2c(C3C(=O)Nc4ccc(Br)cc43)nc(NCCCN)nc2n1 (stereo not given)
136 to 137 °C | CCCn1c(=O)c2[nH]c([C@H](C)c3ccccc3)nc2n(CCC)c1=O
121 to 123 °C | CS(=O)(=O)c1ccc(C(O)C(CF)N=[N+]=[N-])cc1 (stereo not given)
113 to 115 °C | CNC(=O)N1CCC(c2nn(-c3ccc(F)cc3)c3ccccc23)CC1
148 to 150 °C | C[C@H](COc1ccccc1)Nc1nc(F)nc2c1ncn2[C@@H]1O[C@H](CO)[C@@H](O)[C@H]1O
118 to 120 °C | CCN(C(=O)N1CCN(c2cc(OC)cc(OC)c2)CC1)c1cc2ccccc2nc1OC
110 to 115 °C | Nc1ccc2c(c1)CN(Cc1ccccc1)C2
175 to 177 °C | COc1ccc(NS(=O)(=O)c2cc3cc(Cl)ccc3oc2=O)cc1
66 to 68 °C | CC(C#N)S[C@H](C)[C@](O)(Cn1cncn1)c1ccc(F)cc1F (stereo not given in full)
156 to 157 °C | CCCCC(=O)c1c(-c2ccc3cc(O)ccc3c2)oc2ccc(Cl)cc12
107 to 110 °C | NC(=O)N(O)CC#Cc1cccc(Oc2cccnc2)c1
112 to 114 °C | CC(=O)c1c(O)cccc1OCC(O)COc1ccc(Cl)cc1 (stereo not given)
203 to 205 °C | Cc1ccc(N2CCN([C@@H](Cc3ccc(OCCc4nc(-c5ccccc5)oc4C)c(Br)c3)C(=O)O)CC2)cc1

melting point | Compound
75 to 76 °C | CC(C)C(NC(=O)OC(C)(C)C)C(=O)OCC1OC(n2cc(C=CBr)c(=O)[nH]c2=O)CC1Cl (stereo not given)
191 to 192 °C | CC(=O)OC1OCC[C@@H]1NC(=O)CCC(=O)Nc1ccc(Nc2ccccc2)cc1 (stereo not given in full)
169 to 171 °C | CCC(=O)N1CCC(NC(=O)Nc2ccccc2)CC1
155 °C | CC(C)(c1cc(F)ccc1O)c1cc(F)ccc1O
167 to 170 °C | COc1cc(C=C2CCN(C(=O)NOCc3ccccc3)C2=O)cc(OC)c1O
137 °C | CC(=O)N(CCOc1ccc(CC2SC(=O)NC2=O)cc1)c1ncccn1 (stereo not given)
50 to 60 °C | O=C(NCCCCc1ccccc1)OC1CCN(C(=O)OC2CCN(C(=O)Oc3ccc(Oc4ccccc4)cc3)CC2)CC1
81 to 83 °C | CCOC(=O)CCc1cn(CC(=O)N(C)CCc2ccccc2)c2ccc(OCc3ccccc3)cc12
189 to 191 °C | O=[N+]([O-])c1ccc(S(=O)(=O)N2CCN(c3ccc(F)cc3)CC2)cc1
227 to 229 °C | Nc1ccc2sc3ccccc3c(=O)c2c1
196 to 198 °C | O=C(O)c1cc(NC(=O)C(CS)Cc2ccccc2)ccc1N1CCCC1 (stereo not given)
124 to 126 °C | CC(=O)c1ccc(OCc2ccccc2)c2c1OC(C)(C)C(=O)N2
65 to 66 °C | COc1ccc(OC)c(-c2ccc(C)cc2)c1
> 300 °C | CC(=O)NC1(c2ccccc2)C2=NCC(C)(C)CN2c2ccccc21 (stereo not given)
> 250 °C | CCCn1cc(-c2nc(C(N)=O)c(N)nc2-c2ccccc2)ccc1=O
246 to 248 °C | O=C(O)CCCC(=O)Nc1cccc(-c2nnc(-c3ccc(C(F)(F)F)cc3)nn2)c1
> 300 °C | Cc1nc(-n2ccc(OCc3ccc(F)cc3)cc2=O)sc1C(=O)O
120 to 122 °C | CNC(=O)C(C)Oc1ncn(-c2cccc(Cl)c2)n1 (stereo not given)
110 to 111 °C | CC(C)=CCOc1ccc(C2=C(CC(C)C)C(=O)NC2=O)cc1
135 to 136 °C | C=CCOc1ccc(Cl)c2c(=O)c3ccccc3sc12

Compound | melting point
CCNC(=NC#N)NCc1cccnc1 | 177 to 179 °C
CN1CCC23c4c5cccc4OC2C(=O)CCC3(O)C1C5 (stereo not given) | 223 to 225 °C
CCOC(=O)c1ccc(OCCc2c[nH]cn2)cc1 | 160 to 164 °C
COc1cc(C(C)=O)ccc1OCCN1C2CCC1CC(c1n[nH]c3cc(F)ccc13)C2 (stereo not given) | 151 to 152 °C
CC(C)(C)P1(=O)c2ccccc2CN1c1ccccc1 (stereo not given) | 171 to 172 °C
COc1cc2c(cc1OC)N(C)C(=O)CN=C2c1cccc(C(C)=O)c1 | 148 to 150 °C
